Data from PubChem BioAssay AID1224911.

Molecular target: Serine/threonine-protein kinase PAK 2 (Homo sapiens) (UniProt Q13177)
Test: PubChem AID 1224911
Conditions: Caliper in vitro kinase assay, phosphorylated PAK2

Chain of Serine/threonine-protein kinase PAK 2 (Homo sapiens) (Q13177 whole entry, looked up): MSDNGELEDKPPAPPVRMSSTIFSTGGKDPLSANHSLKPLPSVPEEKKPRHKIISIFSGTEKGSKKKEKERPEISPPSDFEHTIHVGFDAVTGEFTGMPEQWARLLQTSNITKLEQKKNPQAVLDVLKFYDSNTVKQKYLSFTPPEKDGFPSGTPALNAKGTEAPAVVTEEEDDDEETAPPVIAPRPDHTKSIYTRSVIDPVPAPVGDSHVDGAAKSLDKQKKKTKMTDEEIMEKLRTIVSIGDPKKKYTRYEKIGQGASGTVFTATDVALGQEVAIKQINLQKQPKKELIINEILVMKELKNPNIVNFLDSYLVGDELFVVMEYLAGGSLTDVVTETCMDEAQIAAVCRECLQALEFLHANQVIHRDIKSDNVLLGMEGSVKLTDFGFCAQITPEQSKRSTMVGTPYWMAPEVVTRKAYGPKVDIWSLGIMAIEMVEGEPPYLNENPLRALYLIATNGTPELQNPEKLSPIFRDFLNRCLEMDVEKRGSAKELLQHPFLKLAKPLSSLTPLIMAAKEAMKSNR

CC(C)NC(=O)N1CC[C@H](N=C2Nc3cc(F)ccc3N(CC(F)F)c3ccc(Cl)cc32)C1
IC50: 720 nM
